The values below come from patent publication US6300368A, “Anilide derivatives and antiarrhythmic agents containing the same” (priority 1998, dated 2001).

The structures appear in SMILES notation. Like-named read-outs stand apart in the source and are kept apart here.

For one data set, the system named is ventricular function. To be noted: cited from earlier work.
The next data set relates to Purkinje's fiber. Briefly: Effects on ventricle: action potential of Purkinje's fiber from dog right ventricular free wall (Pharmacological Trial 2). Format: cell-based. The note with it: Canis lupus familiaris. From the text:
Pharmacological Trial 2: Evaluation of Effects on Ventricle
Method: Purkinje's fiber specimen excised from the right ventricular free wall of dog, perfused with normal Tyrode solution and driven by electrical stimulation (fundamental frequency=1 Hz) was used. Standard glass microelectrode was used to record action potential.

For data set [1], the system named is aconitin-induced atrial fibrillation. Briefly: Aconitin-induced atrial fibrillation model in anaesthetized dogs (Pharmacological Trial 1). The data set is classed as in vivo, dog. The note with it: Canis lupus familiaris; intravenous, anesthetized dogs, as hydrochloride; read-out: minimum dose level which suppresses atrial fibrillation. The protocol:
Pharmacological Trial 1: Evaluation of effectiveness in aconitin-induced atrial fibrillation model (dogs) Evaluation was performed according to K. Hashimoto (Jpn. J. Pharmacol., Vol. 46, 349-358, 1988) as follows:
Method: Dog was anesthetized and thoracotomy was made. Persistent atrial fibrillation was induced by placing a piece of filter paper impregnated with 0.5% aconitin solution (20 to 30 μl) on the right atrium. […] Onset and suppression of atrial fibrillation were monitored electrocardiographically by placing Ag--AgCl bipolar electrode on the right atrial auricle.
Results: Each compound in Examples 1 to 87 suppressed atrial fibrillation at least following dose level (all compounds were used in the form of hydrochloride).

For the molecule `CC(=O)Nc1ccc(OCCNC2CCCCC2)cc1` [4'-[2-(cyclohexylamino)ethoxy] acetanilide], the “action on ventricular function” value in the data set on ventricular function was “act suppressively on ventricular function”.

On to `CC(C)N(CCC(C(N)=O)(c1ccccc1)c1ccccn1)C(C)C` (stereo not drawn) [Disopyramido], for which the inhibition at 30 µM in the data set on Purkinje's fiber (read-out: suppression of Vmax (maximum rate of rise for action potential)) amounted to 33%. `CN(CCOc1ccc(NS(C)(=O)=O)cc1)CCc1ccc(NS(C)(=O)=O)cc1` [Dofetilide]: the figures for the activation at 10 µM with Purkinje's fiber (read-out: extension of APD50 (duration to repolarize 50%)), in the data set with Purkinje's fiber (read-out: extension of APD75 (duration to repolarize 75%)) and in the data set with Purkinje's fiber (read-out: extension of APD90 (duration to repolarize 90%)) were 57%, 45% and 42%, respectively. As for `Cc1cc(NC(=O)C2CCOC2)cc(C)c1OCCNC(C)C.Cl` (stereo not drawn) [Example 84, 4'-[2-(Isopropylamino)ethoxy]-3',5'-dimethyl-2,3,4,5-tetrahydro-3-furanilide Hydrochloride], the minimal effective dose in data set [1] is 10 mg/kg.

`Cc1cc(NC(=O)C2CCOCC2)cc(C)c1OCCNC(C)C.Cl` [Example 85, 4'-[2-(Isopropylamino)ethoxy]-3',5'-dimethyl-3,4,5,6-tetrahydro-2H-pyran-4-carboxanilide Hydrochloride]: the minimal effective dose in data set [1] turned out to be 10 mg/kg. Turning to `COCCC(=O)Nc1cc(C)c(OCCNC(C)C)c(C)c1.Cl` [Example 86, 4'-[2-(Isopropylamino)ethoxy]-3-methoxy-3',5'-dimethyl propananilide Hydrochloride], the minimal effective dose in data set [1] came out at 3 mg/kg. Still for that read-out and setting: the figure for `Cc1cc(NC(=O)c2ccoc2)cc(C)c1OCCNC(C)C.Cl` [Example 87, 4'-[2-(Isopropylamino)ethoxy]-3',5'-dimethyl-3-furanilide Hydrochloride] is 10 mg/kg. On to `O=C(NCC1CCCCN1)c1cc(OCC(F)(F)F)ccc1OCC(F)(F)F` (stereo not drawn) [Flecanide], for which the inhibition at 3 µM in the data set on Purkinje's fiber (3 μM, read-out: suppression of Vmax (maximum rate of rise for action potential)) was 30%. On to `CC(=O)Nc1ccc(OCCNC(C)C)cc1.Cl` [Reference 1, 4'-[2-(Isopropylamino)ethoxy]acetanilide Hydrochloride], for which the “action on ventricular function” value in the data set with ventricular function is “act suppressively on ventricular function”. In addition, in the data set with Purkinje's fiber (30 μM, read-out: suppression of Vmax (maximum rate of rise for action potential)), the inhibition at 30 µM amounted to 15%.
